Measured values taken from article PMC8126241, “Active Components from Cassia abbreviata Prevent HIV-1 Entry by Distinct Mechanisms of Action” (International Journal of Molecular Sciences, 2021).

Legend:
HIV-1 ADA-M [1] = experiment: microbe, parasite or virus in culture; conditions: Human immunodeficiency virus 1, PBMC, 168 h, read-out: IC50 HIV-1 ADA-M
HIV-1 = conditions: read-out: IC50 HIV-1 replication; ref Clouser et al. [24]; cited from earlier work
[2] = tested on: Respiratory syncytial virus; experiment: Broad spectrum antiviral activity, HeLa cells; assay type: cell-based; conditions: human respiratory syncytial virus
Hepatitis C virus (Jc1) = experiment: Broad spectrum antiviral activity, Huh 7-D cells; assay type: cell-based
Coxsackie virus B4 = experiment: Broad spectrum antiviral activity, vero cells; assay type: cell-based; conditions: Enterovirus B
Influenza B B/Ned/537/05 = experiment: microbe, parasite or virus in culture; assay type: cell-based; conditions: MDCK cells
HIV-1 ADA-M [3] = experiment: Dual chamber transmission assay, HeLa upper chamber / TZM-bl lower chamber; assay type: cell-based; conditions: dual-chamber system, at IC50 concentration
Experimental: (§1) Dual chamber transmission assay was performed as previously described. HeLa cells were seeded into an upper chamber of a transwell plate (Sigma-Aldrich, Liège, Belgium), while TZM-bl cells were seeded in the lower chamber. Trans Epithelial Electric Resistance (TEER) was measured using Millicell-ERS Volt-Ohm Meter. HIV-1 ADA-M (200 pg) and drugs were added to the upper chamber after 4 days when TEER reached 150 Ohm/cm^2. 24 h after infection luciferase value of TZM-bl cells lysate was measured using the Luciferase System Kit and the POLARstar Omega Plate Reader. Data were analyzed using GraphPrism. The HIV-1 DC-SIGN transmission assay was performed as previously described.

[4] = tested on: non-B HIV-1 primary clinical isolate #1; experiment: microbe, parasite or virus in culture; conditions: Human immunodeficiency virus 1, PBMC, 168 h, read-out: IC50 non-B HIV-1 primary clinical isolate (first named)
CD4 = target: T1, CD4 (Homo sapiens, UniProt P01730); experiment: Binding competition with anti-CD4 antibodies; conditions: antibodies OKT4 and RPA-T4, U373-CD4-CXCR4/CCR5 cells
T1 construct: host or cells: U373-CD4-CXCR4 and U373-CD4-CCR5 cells
Experimental: Binding competition between increasing concentrations of compounds and FITC-conjugated mouse anti-human CD4 clone RPA-4 (Biolegend, Amsterdam, Netherlands), PE-conjugated mouse anti-Human CXCR4 clone 12G5, and PE-conjugated mouse anti-human CCR5 clone 2D7 (BD Pharma, Aalst, Belgium) to U373-CD4-CXCR4 and U373-CD4-CCR5 cells was first tested by flow cytometry (FACSCanto). […] After 1 h of incubation at 4 °C, cells were washed with FACS buffer (1% bovine serum albumin, 0.1% N3Na in PBS, Sigma), and Mean Fluorescence Intensity (MFI) was measured. […] Internalization was stopped after 30 min by addition of NaN3 (0.1%) on ice. Cells were stained with anti-human CXCR4 clone 4G10 (BD, Belgium) or anti-human CCR5 (CD195) clone T21/8, (eBioscience, Asse, Belgium), Near-IR fluorescent reactive dye during 1 h at 4 °C, washed with FACS buffer, and a secondary PE-conjugated goat anti-mouse antibody (Jackson ImmunoResearch, West Grove, PA, USA).

[5] = tested on: Influenza A/H3N2 A/HK/7/87; experiment: Broad spectrum antiviral activity, MDCK cells; assay type: cell-based; conditions: Influenza A virus
HIV-1 IIIB = experiment: microbe, parasite or virus in culture; conditions: Human immunodeficiency virus 1, IIIB, PBMC, 168 h, read-out: IC50 HIV-1 IIIB
[6] = tested on: HIV-1 gp120 / CD4 binding; experiment: CD4-gp120 interaction assay (ELISA); conditions: in-house ELISA
Experimental: Human soluble CD4 (sCD4) was immobilized in a 96-well plate by adding 100 ng sCD4 (R&D Systems, Belgium) in 100 μL PBS per well and incubated at 4 °C. After 24 h, the CD4 coated plate was washed with 1% BSA-PBS and blocked by adding 100μL 5% BSA-PBS per well for 1 h at 4 °C. The coated plate was then washed and incubated with or without drugs for 1 h at 4 °C. After washing, 100 ng HIV-1 gp120 protein (Fitzgerald, Acton, MA, USA) was added into the plate and kept for 1 h at 4 °C. The plate was washed, and anti-HIV-1 gp120 (Aalto Bio Reagents, Dublin, Ireland) (100 ng/100 μL PBS) was added. After 1 h, the plate was washed and anti-sheep HRP (Sigma, Belgium) (100 ng/100 μL PBS) was added. After 1 h incubation at 4 °C, 100 μL o-phenylenediamine dihydrochloride (OPD) (Thermo Fisher, Asse, Belgium) was added and incubated for 20 min in dark. One hundred microliters 0.5M H2SO4 was finally added to stop the reaction. OD492 and OD630 were measured by POLARstart Omega Plate Reader. OD492 − OD630 was calculated.

Reovirus-1 = experiment: Broad spectrum antiviral activity, vero cells; assay type: cell-based
[7] = tested on: Herpes simplex virus-1 TK KOS ACV; experiment: Broad spectrum antiviral activity, HEL cells; assay type: cell-based; conditions: Human alphaherpesvirus 1, HEL
CXCR4 = target: T2, CXCR4 (Homo sapiens, UniProt P61073); experiment: Binding competition with anti-CXCR4 antibody 12G5; conditions: anti-CXCR4 antibody 12G5, U373-CD4-CXCR4 cells
T2 construct: host or cells: U373-CD4-CXCR4 cells

Feline herpes virus = experiment: Broad spectrum antiviral activity, CRFK cells; assay type: cell-based
[8] = tested on: Herpes simplex virus-2 (G); experiment: Broad spectrum antiviral activity, HEL cells; assay type: cell-based; conditions: Human alphaherpesvirus 2, HEL
[9] = tested on: non-B HIV-1 primary clinical isolate #2; experiment: microbe, parasite or virus in culture; conditions: Human immunodeficiency virus 1, PBMC, 168 h, read-out: IC50 non-B HIV-1 primary clinical isolate (second named)
Yellow fever virus = experiment: microbe, parasite or virus in culture; assay type: cell-based; conditions: Vero
Punta toro virus = experiment: Broad spectrum antiviral activity, vero cells; assay type: cell-based
[10] = tested on: DC-SIGN-captured virus transmission to CD4+ T cells; experiment: HIV-1 DC-SIGN transmission assay; assay type: cell-based; conditions: in vitro, data not shown
Experimental: as §1

[11] = tested on: pseudotype virus pNL4.3ΔEnvLuc-HXB2; conditions: multi-dosing time assay

T2 sequence (P61073 whole entry): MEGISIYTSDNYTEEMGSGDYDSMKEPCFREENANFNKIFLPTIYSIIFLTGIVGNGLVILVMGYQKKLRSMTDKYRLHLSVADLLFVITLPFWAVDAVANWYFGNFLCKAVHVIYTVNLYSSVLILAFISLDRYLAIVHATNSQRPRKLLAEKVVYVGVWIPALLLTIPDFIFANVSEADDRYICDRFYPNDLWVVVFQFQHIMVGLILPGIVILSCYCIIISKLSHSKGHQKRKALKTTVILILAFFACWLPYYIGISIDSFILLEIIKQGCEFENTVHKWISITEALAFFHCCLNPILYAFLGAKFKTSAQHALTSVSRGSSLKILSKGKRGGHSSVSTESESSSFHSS

Structure (SMILES): Oc1cc(O)cc(/C=C/c2ccc(O)c(O)c2)c1 [piceatannol, trans-3,3′,4,5′-tetrahydroxystilbene]
- IC50 (HIV-1 ADA-M [1]): 19.9 ± 0.22 µM
- IC50 (HIV-1): 21.4 µM
- IC50 [2]: > 100 µM
- IC50 (Hepatitis C virus (Jc1)): > 100 µM
- IC50 (Coxsackie virus B4): > 100 µM
- IC50 (Influenza B B/Ned/537/05): > 100 µM
- Decrease of HIV-1 infection (HIV-1 ADA-M [3]): 33%
- HIV-1 infection of TZM-Bl cells relative to control (100) (HIV-1 ADA-M [3]; 24 h post-infection): 66.9%
- IC50 [4]: 37.7 ± 12.5 µM
- Inhibition of anti-CD4 antibodies binding to CD4 (CD4): neither CE nor piceatannol did
- IC50 [5]: > 100 µM
- IC50 (HIV-1 IIIB): 24.2 ± 7.13 µM
- Inhibition of gp120/CD4 binding [6]: did not
- IC50 (Reovirus-1): > 100 µM
- IC50 [7]: 45.4 ± 4 µM
- Inhibition of CXCR4 binding (CXCR4): neither CE nor piceatannol did
- IC50 (Feline herpes virus): > 100 µM
- IC50 [8]: ~45 µM
- IC50 [9]: 8.04 ± 3.07 µM
- IC50 (Yellow fever virus): > 100 µM
- IC50 (Punta toro virus): > 100 µM
- Prevention of transmission of DC-SIGN-captured virus to CD4+ T cells [10]: did not prevent
- Inhibitory effect when added after infection ([11]; 2 h after spinoculation (post-infection)): did not find any effect
- Inhibitory effect when pre-incubated with cells ([11]; 2 h pre-incubation on cells, HXB2 and BAL pseudotypes): inhibited HIV-1 infection at high concentration
- Inhibitory effect when pre-incubated with the virus ([11]; 2 h pre-incubation on virus, HXB2 and BAL pseudotypes): not pre-incubated with the virus
